{"source": "the supplement of paper PMC10307832", "test_in_all_cases": "relative viability (nuclei count vs DMSO), 5 days (fraction); higher = more cells survive", "key": {"RERF-LC-KJ": {"system": "RERF-LC-KJ", "procedure,_shortened": "(§1)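 After 5 days of treatment, lung cancer cells in 1536-well plates were fixed and stained in a single step (final 0.05% Triton X-100, 1% formaldehyde, 1 ug/ml Hoechst) and their nuclei counted on 4× images. Treatment had been applied by pin tool the day after seeding as one drug alone or as a fixed anchor-drug dose with five library-drug doses (not always all listed) in √10 steps. Relative viability is the nuclei count of treated wells divided by that of vehicle wells, and values are medians of duplicate plates.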"}, "HCC-44": {"system": "HCC-44", "procedure,_shortened": "as §1"}, "SW 1573": {"system": "SW 1573", "procedure,_shortened": "as §1"}, "NCI-H3122": {"system": "NCI-H3122", "procedure,_shortened": "as §1"}, "HCC-366": {"system": "HCC-366", "procedure,_shortened": "as §1"}, "LOU-NH91": {"system": "LOU-NH91", "procedure,_shortened": "as §1"}, "NCI-H2405": {"system": "NCI-H2405", "procedure,_shortened": "as §1"}, "NCI-H2085": {"system": "NCI-H2085", "procedure,_shortened": "as §1"}, "NCI-H1666": {"system": "NCI-H1666", "procedure,_shortened": "as §1"}, "EMC-BAC-2": {"system": "EMC-BAC-2", "procedure,_shortened": "as §1"}, "HCC-827": {"system": "HCC-827", "procedure,_shortened": "as §1"}, "NCI-H23": {"system": "NCI-H23", "procedure,_shortened": "as §1"}}, "data": [{"smiles": "C[C@@H]1CN(CC(=O)Nc2ccc3c(c2)Cc2cccc(-c4cc(=O)cc(N5CCOCC5)o4)c2S3)C[C@H](C)O1", "note": "+ O=C(c1cc(Cc2n[nH]c(=O)c3ccccc23)ccc1F)N1CCN(C(=O)C2CC2)CC1 [Olaparib] (partner 8 µM)", "values": [{"measurement": "relative viability", "setting": "RERF-LC-KJ; first compound 0.04 µM", "result": 0.917}, {"measurement": "relative viability", "setting": "RERF-LC-KJ; first compound 0.1265 µM", "result": 0.984}, {"measurement": "relative viability", "setting": "RERF-LC-KJ; first compound 0.4 µM", "result": 1.01}, {"measurement": "relative viability", "setting": "RERF-LC-KJ; first compound 4 µM", "result": 0.323}, {"measurement": "relative viability", "setting": "HCC-44; first compound 0.04 µM", "result": 0.94}, {"measurement": "relative viability", "setting": "HCC-44; first compound 0.1265 µM", "result": 1.02}, {"measurement": "relative viability", "setting": "HCC-44; first compound 0.4 µM", "result": 0.955}, {"measurement": "relative viability", "setting": "HCC-44; first compound 4 µM", "result": 0.969}, {"measurement": "relative viability", "setting": "SW 1573; first compound 0.04 µM", "result": 0.553}, {"measurement": "relative viability", "setting": "SW 1573; first compound 0.1265 µM", "result": 0.546}, {"measurement": "relative viability", "setting": "SW 1573; first compound 0.4 µM", "result": 0.495}, {"measurement": "relative viability", "setting": "SW 1573; first compound 4 µM", "result": 0.21}, {"measurement": "relative viability", "setting": "NCI-H3122; first compound 0.04 µM", "result": 0.607}, {"measurement": "relative viability", "setting": "NCI-H3122; first compound 0.1265 µM", "result": 0.591}, {"measurement": "relative viability", "setting": "NCI-H3122; first compound 0.4 µM", "result": 0.645}, {"measurement": "relative viability", "setting": "NCI-H3122; first compound 4 µM", "result": 0.518}, {"measurement": "relative viability", "setting": "HCC-366; first compound 0.04 µM", "result": 0.43}, {"measurement": "relative viability", "setting": "HCC-366; first compound 0.1265 µM", "result": 0.489}, {"measurement": "relative viability", "setting": "HCC-366; first compound 0.4 µM", "result": 0.44}, {"measurement": "relative viability", "setting": "HCC-366; first compound 4 µM", "result": 0.055}, {"measurement": "relative viability", "setting": "LOU-NH91; first compound 0.04 µM", "result": 0.938}, {"measurement": "relative viability", "setting": "LOU-NH91; first compound 0.1265 µM", "result": 0.964}, {"measurement": "relative viability", "setting": "LOU-NH91; first compound 0.4 µM", "result": 0.907}, {"measurement": "relative viability", "setting": "LOU-NH91; first compound 4 µM", "result": 0.721}, {"measurement": "relative viability", "setting": "NCI-H2405; first compound 0.04 µM", "result": 0.938}, {"measurement": "relative viability", "setting": "NCI-H2405; first compound 0.1265 µM", "result": 0.93}, {"measurement": "relative viability", "setting": "NCI-H2405; first compound 0.4 µM", "result": 0.837}, {"measurement": "relative viability", "setting": "NCI-H2405; first compound 4 µM", "result": 0.578}, {"measurement": "relative viability", "setting": "NCI-H2085; first compound 0.04 µM", "result": 0.755}, {"measurement": "relative viability", "setting": "NCI-H2085; first compound 0.1265 µM", "result": 0.786}, {"measurement": "relative viability", "setting": "NCI-H2085; first compound 0.4 µM", "result": 0.781}, {"measurement": "relative viability", "setting": "NCI-H2085; first compound 4 µM", "result": 0.345}, {"measurement": "relative viability", "setting": "NCI-H1666; first compound 0.04 µM", "result": 0.713}, {"measurement": "relative viability", "setting": "NCI-H1666; first compound 0.1265 µM", "result": 0.767}, {"measurement": "relative viability", "setting": "NCI-H1666; first compound 0.4 µM", "result": 0.659}, {"measurement": "relative viability", "setting": "NCI-H1666; first compound 4 µM", "result": 0.468}, {"measurement": "relative viability", "setting": "EMC-BAC-2; first compound 0.04 µM", "result": 0.512}, {"measurement": "relative viability", "setting": "EMC-BAC-2; first compound 0.1265 µM", "result": 0.579}, {"measurement": "relative viability", "setting": "EMC-BAC-2; first compound 0.4 µM", "result": 0.513}, {"measurement": "relative viability", "setting": "EMC-BAC-2; first compound 4 µM", "result": 0.263}, {"measurement": "relative viability", "setting": "HCC-827; first compound 0.04 µM", "result": 0.674}, {"measurement": "relative viability", "setting": "HCC-827; first compound 0.1265 µM", "result": 0.653}, {"measurement": "relative viability", "setting": "HCC-827; first compound 0.4 µM", "result": 0.678}, {"measurement": "relative viability", "setting": "HCC-827; first compound 4 µM", "result": 0.438}, {"measurement": "relative viability", "setting": "NCI-H23; first compound 0.04 µM", "result": 0.352}, {"measurement": "relative viability", "setting": "NCI-H23; first compound 0.1265 µM", "result": 0.317}]}]}
